Literature values in patent publication US9034628B2, “Induction of gene expression using a high concentration sugar mixture” (Danisco US Inc., priority 2002, dated 2015).

System: main cellulase genes in Trichoderma, cbh1, cbh2, egl1, and egl2

- Expression of the cellulase genes (carbon source available for growth): induced several thousand fold
- expression level of the major cellobiohydrolase 1 (cbh1) (media containing inducing carbon source compared with glucose containing media (Ilmen et al. 1997)): up-regulated several thousand fold
SMILES: OC[C@H]1O[C@@H](O[C@H]2C(O)O[C@H](CO)[C@@H](O)[C@@H]2O)[C@H](O)[C@@H](O)[C@@H]1O (some centres unmarked) [sophorose]
